In article PMC11033320, “Activation of p53 signaling and regression of breast and prostate carcinoma cells by spirooxindole-benzimidazole small molecules” (Frontiers in Pharmacology, 2024):

Legend:
T-47D = assay: NCI anticancer screening, Breast Cancer T-47D; format: cell-based; settings: Homo sapiens, T47D, read-out: % Growth Inhibition (GI %)
From the text: (§1) The compound has been processed according to standard method NCI-60 Human Tumor Cell Lines Screen for organic compound at development therapeutic program (DTP). Requests for access to this national resource can be submitted online at: […]

SK-OV-3 = assay: NCI anticancer screening, Ovarian Cancer SK-OV-3; format: cell-based; settings: Homo sapiens; SK-OV-3, 10 μM; read-out: % Growth Inhibition (GI %)
From the text: as §1

NCI-H322M = assay: NCI anticancer screening, Non-Small Cell Lung Cancer NCI-H322M; format: cell-based; settings: Homo sapiens, read-out: % Growth Inhibition (GI %)
From the text: as §1

BT-549 = assay: NCI anticancer screening, Breast Cancer BT-549; format: cell-based; settings: Homo sapiens; BT-549, 10 μM; read-out: % Growth Inhibition (GI %)
From the text: as §1

KM12 = assay: NCI anticancer screening, Colon Cancer KM12; format: cell-based; settings: Homo sapiens; KM12, 10 μM; read-out: % Growth Inhibition (GI %)
From the text: as §1

RXF 393 = assay: NCI anticancer screening, Renal Cancer RXF 393; format: cell-based; settings: Homo sapiens; RXF 393, 10 μM; read-out: % Growth Inhibition (GI %)
From the text: as §1

M14 = assay: NCI anticancer screening, Melanoma M14; format: cell-based; settings: Homo sapiens; M14, 10 μM; read-out: % Growth Inhibition (GI %)
From the text: as §1

IGROV1 = assay: NCI anticancer screening, Ovarian Cancer IGROV1; format: cell-based; settings: Homo sapiens, IGROV-1; IGROV1, 10 μM; read-out: % Growth Inhibition (GI %)
From the text: as §1

UACC-62 = assay: NCI anticancer screening, Melanoma UACC-62; format: cell-based; settings: Homo sapiens; UACC-62, 10 μM; read-out: % Growth Inhibition (GI %)
From the text: as §1

RPMI-8226 = assay: NCI anticancer screening, Leukemia RPMI-8226; format: cell-based; settings: Homo sapiens; RPMI-8226, 10 μM; read-out: % Growth Inhibition (GI %)
From the text: as §1

OVCAR-8 = assay: NCI anticancer screening, Ovarian Cancer OVCAR-8; format: cell-based; settings: Homo sapiens; OVCAR-8, 10 μM; read-out: % Growth Inhibition (GI %)
From the text: as §1

NCI-H460 = assay: NCI anticancer screening, Non-Small Cell Lung Cancer NCI-H460; format: cell-based; settings: Homo sapiens; NCI-H460, 10 μM; read-out: % Growth Inhibition (GI %)
From the text: as §1

PC-3 cells = assay: MTT assay anticancer activity, PC-3; format: cell-based; settings: Homo sapiens, PC-3, 5 µM, mean ± SEM, read-out: growth inhibition percentage of PC-3
From the text: MTT method was done as described above.

COLO 205 = assay: NCI anticancer screening, Colon Cancer COLO 205; format: cell-based; settings: Homo sapiens; COLO 205, 10 μM; read-out: % Growth Inhibition (GI %)
From the text: as §1

A498 = assay: NCI anticancer screening, Renal Cancer A498; format: cell-based; settings: Homo sapiens; A498, 10 μM; read-out: % Growth Inhibition (GI %)
From the text: as §1

SF-539 = assay: NCI anticancer screening, CNS Cancer SF-539; format: cell-based; settings: Homo sapiens; SF-539, 10 μM; read-out: % Growth Inhibition (GI %)
From the text: as §1

EKVX = assay: NCI anticancer screening, Non-Small Cell Lung Cancer EKVX; format: cell-based; settings: Homo sapiens, read-out: % Growth Inhibition (GI %)
From the text: as §1

SR = assay: NCI anticancer screening, Leukemia SR; format: cell-based; settings: Homo sapiens, read-out: % Growth Inhibition (GI %)
From the text: as §1

MDA-MB 231 cells = settings: for inhibition: 5 µM
OVCAR-4 = assay: NCI anticancer screening, Ovarian Cancer OVCAR-4; format: cell-based; settings: Homo sapiens; OVCAR-4, 10 μM; read-out: % Growth Inhibition (GI %)
From the text: as §1

LOX IMVI = assay: NCI anticancer screening, Melanoma LOX IMVI; format: cell-based; settings: Homo sapiens, read-out: % Growth Inhibition (GI %)
From the text: as §1

SK-MEL-28 = assay: NCI anticancer screening, Melanoma SK-MEL-28; format: cell-based; settings: Homo sapiens; SK-MEL-28, 10 μM; read-out: % Growth Inhibition (GI %)
From the text: as §1

SNB-19 = assay: NCI anticancer screening, CNS Cancer SNB-19; format: cell-based; settings: Homo sapiens; SNB-19, 10 μM; read-out: % Growth Inhibition (GI %)
From the text: as §1

DU-145 = assay: NCI anticancer screening, DU-145; format: cell-based; settings: Homo sapiens; DU-145, 10 μM; read-out: % Growth Inhibition (GI %)
From the text: as §1

NCI-H23 = assay: NCI anticancer screening, Non-Small Cell Lung Cancer NCI-H23; format: cell-based; settings: Homo sapiens; NCI-H23, 10 μM; read-out: % Growth Inhibition (GI %)
From the text: as §1

SF-295 = assay: NCI anticancer screening, CNS Cancer SF-295; format: cell-based; settings: Homo sapiens; SF-295, 10 μM; read-out: % Growth Inhibition (GI %)
From the text: as §1

K-562 = assay: NCI anticancer screening, Leukemia K-562; format: cell-based; settings: Homo sapiens, K562; K-562, 10 μM; read-out: % Growth Inhibition (GI %)
From the text: as §1

NCI-H226 = assay: NCI anticancer screening, Non-Small Cell Lung Cancer NCI-H226; format: cell-based; settings: Homo sapiens; NCI-H226, 10 μM; read-out: % Growth Inhibition (GI %)
From the text: as §1

[1] = target: T1, Mdm2 (residues 1–118 T47W) (Homo sapiens, UniProt Q00987, T47W); assay: MDM2 binding by microscale thermophoresis (MST)
T1 construct: Mdm2 (residues 1–118 T47W; 500 nM)
T1 sequence (Q00987 1-118 T47W): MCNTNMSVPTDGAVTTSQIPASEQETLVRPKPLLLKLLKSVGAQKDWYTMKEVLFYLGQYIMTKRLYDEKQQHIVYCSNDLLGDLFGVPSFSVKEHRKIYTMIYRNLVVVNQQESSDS
Method: MST is a complementary biophysical assay to assess the binding of a small molecule to its receptor. […] Experiments were performed in 50 mM phosphate buffer at pH 7.4 containing 150 mM NaCl, 5 mM DTT, and 5% DMSO. […] Kd values and uncertainties were calculated using the MO Affinity Analysis software.

[2] = tested on: leukemia cells (CCRF-CEM; HL-60 (TB); K-562; MOLT-4; RPMI-8226, SR); assay: NCI anticancer screening, leukemia subpanel; format: cell-based, human; settings: smaller GI% than the other compounds
From the text: as §1

| SMILES | inhibition at 10 µM (T-47D) [%] | inhibition at 10 µM (NCI-H322M) [%] | inhibition at 10 µM (BT-549) [%] | inhibition at 10 µM (KM12) [%] | inhibition at 10 µM (RXF 393) [%] | inhibition at 10 µM (M14) [%] | inhibition at 10 µM (IGROV1) [%] | inhibition at 10 µM (UACC-62) [%] | inhibition at 10 µM (RPMI-8226) [%] | inhibition at 10 µM (OVCAR-8) [%] | inhibition at 10 µM (NCI-H460) [%] | inhibition at 5 µM (PC-3 cells) [%] | inhibition at 10 µM (SF-539) [%] | inhibition at 10 µM (EKVX) [%] | inhibition at 10 µM (SR) [%] | IC50 (MDA-MB 231 cells) [µM] | inhibition (MDA-MB 231 cells) [%] | inhibition at 10 µM (OVCAR-4) [%] | inhibition at 10 µM (LOX IMVI) [%] | inhibition at 10 µM (SK-MEL-28) [%] | further results |
| --- | --- | --- | --- | --- | --- | --- | --- | --- | --- | --- | --- | --- | --- | --- | --- | --- | --- | --- | --- | --- | --- |
| O=C(c1nc2ccccc2[nH]1)[C@H]1[C@H](c2ccc(F)cc2)C2CSCN2[C@]12C(=O)Nc1ccccc12 (stereo partly drawn) [Compound 6f, (3S,6′R)-6'-(1H-Benzo [d]imidazole-2-carbonyl)-7'-(4-fluorophenyl)-3′,6′,7′,7a′-tetrahydro-1′H-spiro [indoline-3.5′-pyrrolo [1,2-c]thiazol]-2-one] | 84.1 | 90.4 | 97.4 | 88.7 | 99.6 | 94.5 | 93.2 | 78.1 | 87.8 | 94.7 | 88.9 | 46 ± 0.833 | 97.7 | 93.8 | 81.3 | 4.41 ± 0.448 | 44.9 ± 3.59 | 83.2 | 94.8 | 102 | inhibition at 10 µM (SK-OV-3): 102%; inhibition at 10 µM (COLO 205): 109%; inhibition at 10 µM (A498): 57.2%; inhibition at 10 µM (SNB-19): 95.9%; inhibition at 10 µM (DU-145): 111%; inhibition at 10 µM (NCI-H23): 98%; inhibition at 10 µM (SF-295): 77.9%; inhibition at 10 µM (K-562): 87.4% |
| O=C(c1nc2ccccc2[nH]1)[C@H]1[C@H](c2cccc(O)c2)C2CSCN2[C@]12C(=O)Nc1ccccc12 (stereo partly drawn) [Compound 6h, (3S,6′R)-6'-(1H-Benzo [d]imidazole-2-carbonyl)-7'-(3-hydroxyphenyl)-3′,6′,7′,7a′-tetrahydro-1′H-spiro [indoline-3.5′-pyrrolo [1,2-c]thiazol]-2-one] | 76.3 | 93.5 | 107 | 89.4 | 104 | 97.3 | 87.9 | 80 | 82.4 | 97 | 94.8 | 40.4 ± 1.25 | 90 | 96.6 | 79.1 | 5.44 ± 0.167 | 40.2 | 82.1 | 84.3 | 95.3 | inhibition at 10 µM (NCI-H226): 99.1%; Kd [1]: 6.68 µM; inhibition at 10 µM (SNB-19): 97.8%; inhibition at 10 µM (DU-145): 105%; inhibition at 10 µM (NCI-H23): 99.3%; inhibition at 10 µM (SF-295): 105%; inhibition at 10 µM (K-562): 92.5% |
| O=C(c1nc2ccccc2[nH]1)[C@H]1[C@H](c2ccc(C(F)(F)F)cc2)C2CSCN2[C@]12C(=O)Nc1ccccc12 (stereo partly drawn) [Compound 6c, (3S,6′R)-6'-(1H-Benzo [d]imidazole-2-carbonyl)-7'-(4-(trifluoromethyl)phenyl)-3′,6′,7′,7a′-tetrahydro-1′H-spiro [indoline-3.5′-pyrrolo [1,2-c]thiazol]-2-one] | 69.7 | 91.1 | 107 | 71.8 | 90.1 | 83.3 | 67.8 | 77.5 | 72 | 98.8 | 66.8 | 54.1 ± 1.35 | 91.6 | 87 | 85.6 | 3.34 ± 0.21 | 55.5 ± 2.5 | 80.9 | 88.7 | 97.7 | inhibition at 10 µM (NCI-H226): 79%; inhibition at 10 µM (SNB-19): 84.9%; inhibition at 10 µM (DU-145): 97%; inhibition at 10 µM (NCI-H23): 82.3%; inhibition at 10 µM (SF-295): 95.3%; inhibition at 10 µM (K-562): 83.1% |
| O=C(c1nc2ccccc2[nH]1)[C@H]1[C@H](c2ccc(Cl)cc2)C2CSCN2[C@]12C(=O)Nc1ccccc12 (stereo partly drawn) [Compound 6b, (3S,6′R)-6'-(1H-Benzo [d]imidazole-2-carbonyl)-7'-(4-chlorophenyl)-3′,6′,7′,7a′-tetrahydro-1′H-spiro [indoline-3.5′-pyrrolo [1,2-c]thiazol]-2-one] | 59.9 | 93.5 | 97 | 66.5 | 71.1 | 79.4 | 68.9 | 73.9 | 63.2 | 89.5 | 74.3 | 51.9 | 84.1 | 80.7 | 65.9 | 4.76 ± 0.265 | 52.7 ± 2.94 | 69.5 | 76.6 | 92.2 | inhibition at 10 µM (NCI-H226): 74%; GI% for MOLT-4, RPMI-8226, and SR cancer cells [2]: 75%; inhibition at 10 µM (SNB-19): 77.7%; inhibition at 10 µM (DU-145): 97.4%; inhibition at 10 µM (NCI-H23): 81.4%; inhibition at 10 µM (SF-295): 77.5%; inhibition at 10 µM (K-562): 82.3% |
